What was measured:
human SOS1 = human SOS1 (Homo sapiens (Human), UniProt Q07889); assay: Surface Plasmon Resonance (SPR) SOS1 Binding Assay; details: biotinylated SOS1 (res. 564-1049), Biacore 8K, 25° C., kinetic or steady state fit, 1:1 binding; read-out: hSOS1 KD
Method in brief: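 Biotinylated Avi-tagged human SOS1 (res. 564-1049) captured on streptavidin chip (~3,000 RU); compounds injected 60 s, dissociation 600 s, at 25° C in Tris pH 8.0 buffer with 5% DMSO. Reference- and blank-subtracted; KD from kinetic or steady-state 1:1 binding fit.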

[1] = biological target: SOS1:KRAS (G12C) interaction (Homo sapiens (Human), UniProt Q07889); assay: SOS1 KRas(G12C) FRET Assay; assay type: binding; details: 0.5 nM His10-SOS1 (res. 564-1049), 2.5 nM GST-KRAS G12C (res. 1-169), 2 hrs at RT
Method in brief: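 GST-KRAS G12C (res. 1-169) at 2.5 nM and His10-SOS1 (res. 564-1049) at 0.5 nM, final, in PBS with 0.1% BSA, 5 mM MgCl2, 100 mM KF, 5 mM DTT and 0.5% DMSO. After 2 h at RT, FRET read at 665/615 nm and normalized to DMSO and no-SOS1 controls. IC50 by non-linear regression.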

Chain of SOS1:KRAS (G12C) interaction (Q07889 564-1049, stated change not applied): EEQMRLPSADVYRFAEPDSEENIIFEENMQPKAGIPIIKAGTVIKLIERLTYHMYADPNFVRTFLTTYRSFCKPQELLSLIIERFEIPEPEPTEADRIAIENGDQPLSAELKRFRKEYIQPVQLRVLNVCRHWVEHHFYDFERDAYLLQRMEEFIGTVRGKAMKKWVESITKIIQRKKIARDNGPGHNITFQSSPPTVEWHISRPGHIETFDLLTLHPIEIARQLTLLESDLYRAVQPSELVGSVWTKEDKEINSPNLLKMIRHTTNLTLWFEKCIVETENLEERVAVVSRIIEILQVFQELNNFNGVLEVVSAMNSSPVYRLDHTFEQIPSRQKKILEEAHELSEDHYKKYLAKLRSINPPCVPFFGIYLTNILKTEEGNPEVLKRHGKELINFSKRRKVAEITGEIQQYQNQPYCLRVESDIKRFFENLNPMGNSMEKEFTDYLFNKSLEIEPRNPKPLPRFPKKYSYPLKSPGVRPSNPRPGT
Chain of human SOS1 (Q07889 564-1049): as the sequence (Q07889 564-1049, stated change not applied) above

SMILES	Kd (human SOS1) [nM]	IC50 [1] [nM]
C[C@@H](NC(=O)c1cn(C2(C(F)F)CC2)c(=O)cc1N[C@H](C)c1cncn1C)c1cccc(C(F)F)c1F [Example 88, N-((R)-1-(3-(difluoromethyl)-2-fluorophenyl)ethyl)-1(1-(difluoromethyl)cyclopropyl)-4(((R)-1-(1-methyl-1H-imidazol-5-yl)ethyl)amino)-6-oxo-1,6-dihydropyridine-3-carboxamide]	96	87.3
C[C@@H](NC(=O)c1cn(C23CC(C2)C3)c(=O)cc1N[C@H]1[C@@H]2CN(C)C[C@@H]21)c1cccc(C(F)F)c1F [Example 90, 1-(bicyclo[1.1.1]pentan-1-yl)-N-((R)-1-(3-(difluoromethyl)-2-fluorophenyl)ethyl)-4-(((1R,5S,6s)-3-methyl-3-azabicyclo[3.1.0]hexan-6-yl)amino)-6-oxo-1,6-dihydropyridine-3-carboxamide]	9	13.4
[2H]C([2H])([2H])N1C[C@@H]2[C@H](C1)[C@H]2Nc1cc(=O)n(C23CC(C2)C3)cc1C(=O)N[C@H](C)c1cccc(C(F)F)c1F [Example 91, 1-(bicyclo[1.1.1]pentan-1-yl)-N-((R)-1-(3-(difluoromethyl)-2-fluorophenyl)ethyl)-4-(((1R,5S,6s)-3-(methyl-d3)-3-azabicyclo[3.1.0]hexan-6-yl)amino)-6-oxo-1,6-dihydropyridine-3-carboxamide]	12	13.9
C[C@@H](NC(=O)c1cn([C@H]2CC2(F)F)c(=O)cc1N[C@H]1[C@@H]2CN(C)C[C@@H]21)c1cccc(C(F)F)c1F [Example 93, 1-((S)-2,2-difluorocyclopropyl)-N-((R)-1-(3-(difluoromethyl)-2-fluorophenyl)ethyl)-4-(((lR,5S,6s)-3-methyl-3-azabicyclo[3.1.0]hexan-6-yl)amino)-6-oxo-1,6-dihydropyridine-3-carboxamide]	13	23.2
C[C@@H](NC(=O)c1cn([C@H]2CC2(C)C)c(=O)cc1N[C@H]1[C@@H]2CN(C)C[C@@H]21)c1cccc(C(F)F)c1F [Example 95, N-((R)-1-(3-(difluoromethyl)-2-fluorophenyl)ethyl)-1-((S)-2,2-dimethylcyclopropyl)-4-(((lR,5S,6s)-3-methyl-3-azabicyclo[3.1.0]hexan-6-yl)amino)-6-oxo-1,6-dihydropyridine-3-carboxamide]	12	21.6
CC(C)n1cc(C(=O)N[C@H](C)c2cccc(C(F)F)c2F)c(N[C@H]2[C@@H]3CN(C)C[C@@H]32)cc1=O [Example 99, N-((R)-1-(3-(difluoromethyl)-2-fluorophenyl)ethyl)-1-isopropyl-4-(((1R,5S,6s)-3-methyl-3-azabicyclo[3.1.0]hexan-6-yl)amino)-6-oxo-1,6-dihydropyridine-3-carboxamide]	30	64.8
C[C@@H](NC(=O)c1cn(C23CC(C(F)(F)F)(C2)C3)c(=O)cc1N[C@H]1[C@@H]2CN(C)C[C@@H]21)c1cccc(C(F)F)c1F [Example 106, N-((R)-1-(3-(difluoromethyl)-2-fluorophenyl)ethyl)-4-(((1R,5S,6s)-3-methyl-3-azabicyclo[3.1.0]hexan-6-yl)amino)-6-oxo-1-(3-(trifluoromethyl)bicyclo[1. 1.1]pentan-1-yl)-1,6-dihydropyridine-3-carboxamide]	19	16.8
C[C@@H](NC(=O)c1cn(C(C)(C)C2CC2)c(=O)cc1N[C@H]1[C@@H]2CN(C)C[C@@H]21)c1cccc(C(F)F)c1F [Example 108, 1-(2-cyclopropylpropan-2-yl)-N-((R)-1-(3-(difluoromethyl)-2-fluorophenyl)ethyl)-4-(((1R,5S,6s)-3-methyl-3-azabicyclo[3.1.0]hexan-6-yl)amino)-6-oxo-1,6-dihydropyridine-3-carboxamide]	343	147
C[C@@H](NC(=O)c1cn([C@@H]2C[C@H]2C(F)F)c(=O)cc1N[C@H]1[C@@H]2CN(C)C[C@@H]21)c1cccc(C(F)F)c1F [Example 114, N-((R)-1-(3-(difluoromethyl)-2-fluorophenyl)ethyl)-1-((1R,2R)-2-(difluoromethyl)cyclopropyl)-4-(((1R,5S,6s)-3-methyl-3-azabicyclo[3.1.0]hexan-6-yl)amino)-6-oxo-1,6-dihydropyridine-3-carboxamide]	13	21.1
C[C@@H](NC(=O)c1cn(C2(C(F)(F)F)CC2)c(=O)cc1N[C@H]1[C@@H]2CN(C)C[C@@H]21)c1cccc(C(F)F)c1F [Example 119, N-((R)-1-(3-(difluoromethyl)-2-fluorophenyl)ethyl)-4-(((1R,5S,6s)-3-methyl-3-azabicyclo[3.1.0]hexan-6-yl)amino)-6-oxo-1-(1-(trifluoromethyl)cyclopropyl)-1,6-dihydropyridine-3-carboxamide]	23	36.6

The remaining molecules from weak to strong by Kd (human SOS1), led by results:

Kd (human SOS1) [nM]	IC50 [1] [nM]	SMILES
11	24	C[C@@H](NC(=O)c1cn(C2CC2)c(=O)cc1N[C@H]1[C@@H]2CN(C)C[C@@H]21)c1cccc(C(F)F)c1F [Example 101, 1-cyclopropyl-N-((R)-1-(3-(difluoromethyl)-2-fluorophenyl)ethyl)-4-(((1R,5S,6s)-3-methyl-3-azabicyclo[3.1.0]hexan-6-yl)amino)-6-oxo-1,6-dihydropyridine-3-carboxamide]
10	18.2	C[C@@H](NC(=O)c1cn(C2CC(F)(F)C2)c(=O)cc1N[C@H]1[C@@H]2CN(C)C[C@@H]21)c1cccc(C(F)F)c1F [Example 100, 1-(3,3-difluorocyclobutyl)-N-((R)-1-(3-(difluoromethyl)-2-fluorophenyl)ethyl)-4-(((1R,5S,6s)-3-methyl-3-azabicyclo[3.1.0]hexan-6-yl)amino)-6-oxo-1,6-dihydropyridine-3-carboxamide]
9	15.7	C[C@@H](NC(=O)c1cn([C@H]2C[C@@H](F)C2)c(=O)cc1N[C@H]1[C@@H]2CN(C)C[C@@H]21)c1cccc(C(F)F)c1F [Example 96, N-((R)-1-(3-(difluoromethyl)-2-fluorophenyl)ethyl)-1-((1s,3S)-3-fluorocyclobutyl)-4-(((1R,5S,6s)-3-methyl-3-azabicyclo[3.1.0]hexan-6-yl)amino)-6-oxo-1,6-dihydropyridine-3-carboxamide]
9	13	C[C@@H](NC(=O)c1cn(C23CC(C(F)F)(C2)C3)c(=O)cc1N[C@H]1[C@@H]2CN(C)C[C@@H]21)c1cccc(C(F)F)c1F [Example 105, N-((R)-1-(3-(difluoromethyl)-2-fluorophenyl)ethyl)-1-(3-(difluoromethyl)bicyclo [1. 1.1]pentan-1-yl)-4-(((1R,5S,6s)-3-methyl-3-azabicyclo[3.1.0]hexan-6-yl)amino)-6-oxo-1,6-dihydropyridine-3-carboxamide]
8	12.1	C[C@@H](NC(=O)c1cn(C23CC(F)(C2)C3)c(=O)cc1N[C@H]1[C@@H]2CN(C)C[C@@H]21)c1cccc(C(F)F)c1F [Example 102, N-((R)-1-(3-(difluoromethyl)-2-fluorophenyl)ethyl)-1-(3-fluorobicyclo[1.1.1]pentan-1-yl)-4-(((1R,5S,6s)-3-methyl-3-azabicyclo[3.1.0]hexan-6-yl)amino)-6-oxo-1,6-dihydropyridine-3-carboxamide]
7	16.7	C[C@@H](NC(=O)c1cn([C@H]2C[C@H](F)C2)c(=O)cc1N[C@H]1[C@@H]2CN(C)C[C@@H]21)c1cccc(C(F)F)c1F [Example 97, N-((R)-1-(3-(difluoromethyl)-2-fluorophenyl)ethyl)-1-((1r,3R)-3-fluorocyclobutyl)-4-(((1R,5S,6s)-3-methyl-3-azabicyclo[3.1.0]hexan-6-yl)amino)-6-oxo-1,6-dihydropyridine-3-carboxamide]
6	13.4	C[C@@H](NC(=O)c1cn(C23CC(C)(C2)C3)c(=O)cc1N[C@H]1[C@@H]2CN(C)C[C@@H]21)c1cccc(C(F)F)c1F [Example 98, N-((R)-1-(3-(difluoromethyl)-2-fluorophenyl)ethyl)-4-(((1R,5S,6s)-3-methyl-3-azabicyclo[3.1.0]hexan-6-yl)amino)-1-(3-methylbicyclo[1.1.1]pentan-1-yl)-6-oxo-1,6-dihydropyridine-3-carboxamide]
6	10.5	C[C@@H](NC(=O)c1cn([C@H]2C[C@@H]2C(F)F)c(=O)cc1N[C@H]1[C@@H]2CN(C)C[C@@H]21)c1cccc(C(F)F)c1F [Example 113, N-((R)-1-(3-(difluoromethyl)-2-fluorophenyl)ethyl)-1-((1S,2S)-2-(difluoromethyl)cyclopropyl)-4-(((1R,5S,6s)-3-methyl-3-azabicyclo[3.1.0]hexan-6-yl)amino)-6-oxo-1,6-dihydropyridine-3-carboxamide]
3	8.4	C[C@@H](NC(=O)c1cn(C2CC3(CC3)C2)c(=O)cc1N[C@H]1[C@@H]2CN(C)C[C@@H]21)c1cccc(C(F)F)c1F [Example 107, N-((R)-1-(3-(difluoromethyl)-2-fluorophenyl)ethyl)-4-(((1R,5S,6s)-3-methyl-3-azabicyclo[3.1.0]hexan-6-yl)amino)-6-oxo-1-(spiro[2.3]hexan-5-yl)-1,6-dihydropyridine-3-carboxamide]

Source: patent US20230348424A1, “HETEROCYCLIC COMPOUNDS AND METHODS OF USE” (Schrödinger, Inc., priority 2022, published 2023)
